# Test results: US12234248B2, “Co-crystal compounds comprising lithium ions and isonicotinamide” (UNIVERSITY OF LIMERICK, priority 2017, dated 2025)
# Values joined by “and” are separate entries in the source; they are usually repeats but may differ in a detail not shown here. Identical values can stand only once.
# How the values were obtained:
# [1] = Bioavailability in vivo in rats: lithium in plasma and brain by ICP-OES after oral administration; conditions: for BRAIN CONC., Time(h) 2.00 / PLASMA CONC, Time(h) 2.00: 2 h; for BRAIN CONC., Time(h) 2.00 / BRAIN CONC., Time(h) 24.00 / BRAIN CONC., Time(h) 48.00 / BRAIN CONC., Time(h) 72.00: lithium in brain; for BRAIN CONC., Time(h) 2.00 / PLASMA CONC, Time(h) 2.00 / BRAIN CONC., Time(h) 24.00 / PLASMA CONC, Time(h) 24.00 / BRAIN CONC., Time(h) 48.00 / PLASMA CONC, Time(h) 48.00 / BRAIN CONC., Time(h) 72.00 / PLASMA CONC, Time(h) 72.00: individual rats (three per time); for PLASMA CONC, Time(h) 2.00 / PLASMA CONC, Time(h) 24.00 / PLASMA CONC, Time(h) 48.00 / PLASMA CONC, Time(h) 72.00: lithium in plasma; for BRAIN CONC., Time(h) 24.00 / PLASMA CONC, Time(h) 24.00: 24 h; for BRAIN CONC., Time(h) 48.00 / PLASMA CONC, Time(h) 48.00: 48 h; for BRAIN CONC., Time(h) 72.00 / PLASMA CONC, Time(h) 72.00: 72 h
# Description: Male Sprague-Dawley rats, weighing 240-290 g, were treated through gastric intubation with formulations of lithium and compared with lithium carbonate as a reference. For each formulation a group of 12 rats was treated. 4 mEq/kg of lithium were orally administered, after suspension in 2 mL of corn seeds oil (“Olio Cuore”).
# Four intervals' post-administration time (2, 24, 48 and 72 hours) were considered and three rats for each of them, employing the protocol used by Zaworotko and coworkers (Smith et al., Mol. Pharmaceutics 2013, 10, 4728-4738). At each time interval blood samples were collected through intra-cardiac […], these were treated with 50 μL of sodium heparin and centrifuged for 10 min at 1600 rpm. Plasma samples of approximately […] each were thus obtained. The brain was explanted in toto with perfusion with phosphate buffered saline (PBS) in order to preserve it in a viable state. The plasma and brain samples were immediately frozen at a temperature of −80° C., after measuring the weight of the brains.
# In order to determine the concentration of the lithium by means of the ICP-OES (Inductively Coupled Plasma Optical Emission Spectometry) analysis, plasma and brain samples were purified and mineralized, respectively to obtain solutions suitable for analysis.
# A 0.5 mL aliquot was taken from each sample, to which were added equal amounts of MilliQ water and concentrated nitric acid, in order to bring the lithium ion in solution in the form of LiNO3 and to obtain the precipitation of the proteins. At this point, each sample was sonicated for 10 min in an ultrasonic bath and diluted to a volume of 5.0 mL.
# All samples were subjected to centrifugation for a period of 40 min, at a rotational speed of 6000 rpm, to obtain complete plasma proteins/solution separation. At the end supernatant liquid containing lithium was diluted to a final volume of 15 mL by adding MilliQ water. The obtained solutions were stored at a temperature of 4° C. until analysis.
# The purpose of this phase was to obtain liquid samples, suitable to ICP-OES analysis, containing lithium in solution, starting from the solid organic tissue of the brain. The mineralization process allows the complete degradation of organic substances until the total transformation into simple inorganic substances.
# The first operation performed was that the drying of the fabric, obtained through the use of a digester open PerkinElmer SPB 100-12: each sample of brain has been inserted in special containers Digitube™ 100 mL and maintained at a temperature of 80° C. for 120 min.
# The second step involved the mineralization true and proper brain: each sample were added to 10 mL of concentrated nitric acid and 1.0 mL of hydrogen peroxide, then the system was brought to a temperature of 120° C. for 120 min. until the complete mineralization. With this procedure you get the desired biological degradation of organic compounds and the consequent passage of lithium in solution. The solutions thus obtained were collected, brought to a final volume of 20 mL with MilliQ water and preserved at a temperature of 4° C. until time of analysis.
# In order to obtain the determination of lithium ion concentrations in the samples previously prepared, optical emission spectrometry inductively coupled plasma ICP-OES was used (PerkinElmer Optima 8000 spectrometer).
# The analysis was conducted at the fixed wavelength of lithium (λ=670.784 nm) and the intensity of the radiation emitted by each sample was measured and compared standard solutions.
# Plasma and brain concentration data were processed using a non-compartmental approach using WinNonlin® software (Pharsight Corporation, USA) and Microsoft Excel XP (Microsoft Corporation, […]).
# [2] = Stability of crystalline material under warm humid conditions (40° C., 75% relative humidity), PXRD before and after; assay type: physicochemical; conditions: for PXRD pattern after storage compared with initial pattern: after 2 months at 75% relative humidity and 40° C.; for Stable?: stored at 40° C., 75% relative humidity, stable = retained crystal form for at least two weeks by PXRD
# Description: The stability of these compounds under warm humid conditions was assessed as follows:
# The crystalline material was stored at 40° C. in an atmosphere of 75% relative humidity.
# Compounds were classed as stable if they retained their crystal form for at least two weeks as verified by examination of PXRD patterns collected before and after exposure to humidity.
# It can be seen that the pattern obtained after 2 months at 75% relative humidity and 40° C. (upper trace) in this case is different.
# [3] = rat brain, 4 mEq/kg lithium oral, non-compartmental
# [4] = rat brain, 4 mEq/kg lithium oral, terminal phase
# [5] = rat brain, 4 mEq/kg lithium oral, time 0 to last quantifiable point
# [6] = rat brain, relative to lithium carbonate
# [7] = rat plasma, 4 mEq/kg lithium oral, non-compartmental
# [8] = rat plasma, 4 mEq/kg lithium oral, terminal phase
# [9] = rat plasma, relative to lithium carbonate
compound,measurement,setting,value
"COc1ccccc1C(=O)[O-].O=C(O)[C@@H]1CCCN1.[Li+] [Compound 1, [Li(2-methoxybenzoate)(L-proline)]n]",Cmax (brain),[1]; [3],3.5067 µg/g
same,Tmax (brain),[1]; [3],24 h
same,t½_Lambda_z (brain),[1]; [4],18.9045 h
same,AUClast (brain),[1]; [5],172.2533 mg·h/g
same,"Relative Brain BA (UL crystal forms, oral vs Li2CO3, oral)",[1]; [6],74.12%
same,Cmax (plasma),[1]; [7],4120 ng/mL
same,Tmax (plasma),[1]; [7],24 h
same,t½_Lambda_z (plasma),[1]; [8],12.9141 h
same,"Relative Plasma BA (UL crystal forms, oral vs Li2CO3 oral)",[1]; [9],58.42%
same,"BRAIN CONC., Time(h) 2.00","[1]; rat, 4 mEq/kg lithium oral",0.96 µg/g and 0.71 µg/g and 0.68 µg/g
same,"PLASMA CONC, Time(h) 2.00","[1]; rat, 4 mEq/kg lithium oral",3430 ng/mL and 1780 ng/mL and 2310 ng/mL
same,"BRAIN CONC., Time(h) 24.00","[1]; rat, 4 mEq/kg lithium oral",3.64 µg/g and 4.28 µg/g and 2.60 µg/g
same,"PLASMA CONC, Time(h) 24.00","[1]; rat, 4 mEq/kg lithium oral",3850 ng/mL and 6010 ng/mL and 2500 ng/mL
same,"BRAIN CONC., Time(h) 48.00","[1]; rat, 4 mEq/kg lithium oral",2.81 µg/g and 4.50 µg/g and 2.06 µg/g
same,"PLASMA CONC, Time(h) 48.00","[1]; rat, 4 mEq/kg lithium oral",970 ng/mL and 1780 ng/mL and 850 ng/mL
same,"BRAIN CONC., Time(h) 72.00","[1]; rat, 4 mEq/kg lithium oral",0.62 µg/g and 0.68 µg/g and 0.51 µg/g
same,"PLASMA CONC, Time(h) 72.00","[1]; rat, 4 mEq/kg lithium oral",230 ng/mL and 400 ng/mL and 310 ng/mL
same,PXRD pattern after storage compared with initial pattern,[2],substantially identical
same,Stable?,[2],Yes
"NC(=O)c1ccncc1.NC(=O)c1ccncc1.O=C([O-])/C=C/C(=O)[O-].[Li+].[Li+] [Compound 2, [Li2(fumarate)(isonicotinamide)2]n]",AUC (Cerebral)/AUC (Plasma),"[1]; rat, in vivo",1.208
same,AUC(0-t),"[1]; rat, in vivo, po",147 µg·h/mL
same,AUClast (brain),"[1]; rat, in vivo, po",0.177 mg·h/g
same,Cmax (brain),"[1]; rat, in vivo, po",4.0200 µg/g
same,Cmax (plasma),"[1]; rat, in vivo, po",3976.7 ng/mL
same,"Relative Brain BA (UL crystal forms, oral vs Li2CO3, oral)","[1]; rat, in vivo, po",76.37%
same,"Relative Plasma BA (UL crystal forms, oral vs Li2CO3 oral)","[1]; rat, in vivo, po",54.52%
same,Tmax (brain),"[1]; rat, in vivo, po",24 h
same,Tmax (plasma),"[1]; rat, in vivo, po",24 h
same,t½_Lambda_z (brain),"[1]; rat, in vivo, po",16.7775 h
same,t½_Lambda_z (plasma),"[1]; rat, in vivo, po",14.0638 h
same,Stable?,[2],Yes
"CNCC(=O)O.O.O=C([O-])c1cccnc1.[Li+] [Compound 9, [Li(nicotinate)(sarcosine)(water)]n]",Stable?,[2],No
"O=C(O)C(=O)O.O=C(O)C(=O)O.O=C([O-])C(=O)O.[Li+].c1c[nH]cn1.c1c[nH]cn1 [Compound 11, [(imidazolium)2^+(Li(hydogen oxalate)(oxalate))^−(oxalic acid)]]",PXRD pattern after storage compared with initial pattern,[2],different
same,Stable?,[2],No
"O=C(O)[C@@H]1CCCN1.O=C([O-])c1ccccc1.[Li+] [Compound 12, [Li(benzoate)(L-proline)]n]",Stable?,[2],Yes
"O=C(O)[C@@H]1CCCN1.O=C([O-])c1ccccc1O.[Li+] [Compound 14, [Li(salicylate)(L-proline)]n]",Stable?,[2],Yes
"O=C([O-])CCC(=O)[O-].[Li+].[Li+] [Compound 16, [Li2 (succinate)]n]",Stable?,[2],Yes
"O=C([O-])c1ccccc1.[Li+] [Compound 18, [Li (benzoate)]n]",Stable?,[2],Yes
"CNCC(=O)O.O.O=C([O-])c1ccc(O)cc1.[Li+] [Compound 19, [Li(sarcosine)(4-hydroxybenzoate)(water)]n]",Stable?,[2],No
"CC(O)C(=O)[O-].CC(O)C(=O)[O-].NC(N)=O.O.O.[Li+].[Li+] (stereo not drawn) [Compound 21, [(Li2(lactate)2(water)2)(urea)]n]",Stable?,[2],No
"NC(=O)c1ccncc1.O.O=C([O-])/C=C\C(=O)O.[Li+] [Compound 22, [Li(maleate)(isonicotinamide) (water)]n]",Stable?,[2],No
"CC1=CC(=O)[N-]S(=O)(=O)O1.O.[Li+] [Compound 23, [Li(acesulfame)(water)]n]",Stable?,[2],No
"NCCC(=O)O.NCCC(=O)O.O.O=C([O-])C(=O)[O-].[Li+].[Li+] [Compound 25, [Li2(oxalate)(beta-alanine)2(water)]n]",Stable?,[2],No
"CC1(C)C2CCC1(CS(=O)(=O)[O-])C(=O)C2.CC1(C)C2CCC1(CS(=O)(=O)[O-])C(=O)C2.NC(N)=O.NC(N)=O.O.O.[Li+].[Li+] (stereo not drawn) [Compound 28, [Li2(camphorsulphonate)2(urea)2 (water)2]]",Stable?,[2],No
"CC1(C)C2CCC1(CS(=O)(=O)[O-])C(=O)C2.CNCC(=O)O.O.O.[Li+] (stereo not drawn) [Compound 30, [Li(camphorsulfonate)(sarcosine)(water)2]]",Stable?,[2],No
"NC(=O)c1ccncc1.NC(=O)c1ccncc1.NC(=O)c1ccncc1.NC(=O)c1ccncc1.NC(=O)c1ccncc1.NC(=O)c1ccncc1.NC(=O)c1ccncc1.NC(=O)c1ccncc1.O=C([O-])c1ccccc1O.O=C([O-])c1ccccc1O.O=C([O-])c1ccccc1O.O=C([O-])c1ccccc1O.[Li+].[Li+].[Li+].[Li+] [Compound 32, [Li2(salicylate)2(isonicotinamide)4]2]",Stable?,[2],No
"O=C([O-])[O-].[Li+].[Li+] [Lithium carbonate, lithium carbonate, reference compound]",Cmax (brain),[1]; [3],5.9900 µg/g
same,Tmax (brain),[1]; [3],24 h
same,t½_Lambda_z (brain),[1]; [4],13.7913 h
same,AUClast (brain),[1]; [5],232.4100 mg·h/g
same,"Relative Brain BA (UL crystal forms, oral vs Li2CO3, oral)",[1]; [6],100.00%
same,Cmax (plasma),[1]; [7],8413.3 ng/mL
same,Tmax (plasma),[1]; [7],24 h
same,t½_Lambda_z (plasma),[1]; [8],7.3913 h
same,"Relative Plasma BA (UL crystal forms, oral vs Li2CO3 oral)",[1]; [9],100.00%
same,"BRAIN CONC., Time(h) 2.00","[1]; rat, 4 mEq/kg lithium oral",0.60 µg/g and 1.43 µg/g and 0.68 µg/g
same,"PLASMA CONC, Time(h) 2.00","[1]; rat, 4 mEq/kg lithium oral",3020 ng/mL and 4820 ng/mL and 2720 ng/mL
same,"BRAIN CONC., Time(h) 24.00","[1]; rat, 4 mEq/kg lithium oral",7.89 µg/g and 4.55 µg/g and 5.53 µg/g
same,"PLASMA CONC, Time(h) 24.00","[1]; rat, 4 mEq/kg lithium oral",8720 ng/mL and 5320 ng/mL and 11200 ng/mL
same,"BRAIN CONC., Time(h) 48.00","[1]; rat, 4 mEq/kg lithium oral",3.35 µg/g and 2.89 µg/g and 3.43 µg/g
same,"PLASMA CONC, Time(h) 48.00","[1]; rat, 4 mEq/kg lithium oral",1290 ng/mL and 1180 ng/mL and 1600 ng/mL
same,"BRAIN CONC., Time(h) 72.00","[1]; rat, 4 mEq/kg lithium oral",0.54 µg/g and 0.52 µg/g and 0.55 µg/g
same,"PLASMA CONC, Time(h) 72.00","[1]; rat, 4 mEq/kg lithium oral",140 ng/mL and 60 ng/mL and 80 ng/mL
Li(adeninate)(water)3 [Compound 8],Stable?,[2],No
[(imidazolium)2^+(Li(hydrogen malate)2(water))^−] [Compound 33],Stable?,[2],No
[Li2 (fumarate)]n [Compound 15],Stable?,[2],Yes
[Li2 (oxalate)]n [Compound 17],Stable?,[2],Yes
[Li(camphorsulfonate)(water)2] [Compound 29],Stable?,[2],No
[Li(hydrogen maleate)(sarcosine)(water)] [Compound 27],Stable?,[2],No
[Li(pyridoxinate)(water)]n [Compound 10],Stable?,[2],No
{[Li(malate) (water)2]•(imidazolium)}n [Compound 26],Stable?,[2],No
{[Li(p-toluenesulfonate)]•H30}n [Compound 31],Stable?,[2],No
